Results published in patent US20220354835A1, “COMPOUNDS FOR DEGRADING TAU PROTEIN AGGREGATES AND USES THEREOF” (Aprinoia Therapeutics Limited, priority 2019, published 2022).

Experiments:
[1] = molecular target: T1, heparin-induced aggregated tau (aTau), full-length 2N4R human Tau (Homo sapiens, UniProt P10636); assay: PBB5 competition assay; type: binding; conditions: 0.12 μM aTau; for IC50: 0.1 μM PBB5, 37° C. 1 hour, PBB5 fluorescence 530/690 nm; for Emax: 0.1 μM PBB5, compound up to 10 μM, read-out: Competition Assay with PBB5: Bmax (%)
T1 construct: transformed with a full-length 2N4R tau expression plasmid; made in house; host or cells: E. coli BL21
Protocol: (§1) (A) Expression and purification of human Tau: 1 mM IPTG (Sangon Biotech, Cat. No A100487) was used to induce production of tau by bacteria (BL21, Invitrogen, Cat. No C600003) transformed with a full-length 2N4R tau expression plasmid. After 3 hours, cell pellet was resuspended in lysis buffer (100 mM PIPES, 1 mM EGTA, 1 mM MgSO4, pH 6.8) and lysed by sonication followed by centrifugation (15,000 rpm, 15 min, 4° C.). The supernatant was then placed in a boiling water bath for 20 min, followed by centrifugation (15,000 rpm, 15 min, 4° C.). Supernatant was loaded onto a Q-Sepharose® Fast Flow column (GE healthcare, Cat. No 17-0510-01), the flow-through fraction was loaded onto an SP-Sepharose® Fast Flow column (GE healthcare, Cat. No 17-0729-01), and tau protein was eluted with elution buffer (100 mM PIPES, 1 M NaCl, 1 mM EGTA, 1 mM MgSO4, 0.2 M NaCl, pH 6.8). Collected fractions of tau-containing eluates were pooled, concentrated and dialyzed against HEPES buffer (25 mM HEPES, 0.1 mM EDTA, 0.5 mM DTT, 100 mM NaCl, pH 7.2) and stored at −80° C. in small aliquots until use. Protein concentration was determined by UV absorption.
(§2) (B) Preparation of heparin-induced aggregated tau (aTau): 2 μM of tau prepared in 30 mM Tris-HCl, pH 7.5 buffer was incubated in tube with 15 μM heparin (Sigma, Cat. No H3149) at 37° C. for 24 hours.
(E) PBBS competition assay: 2 μM of aTau was diluted to 0.12 μM by […] (pH 6.8) and then incubated with 0.1 μM 2-(4-(2-(methylamino)pyridine-5-yl)-1,3-butadiene-1-yl)benzothiazole-6-ol (PBB5) and serially diluted compound (three-fold serial dilution, from 10 to 0.00017 μM) in a 96-well plate (Corning, Cat. No 3573) at 37° C. for 1 hour. Fluorescence intensity (excitation/emission=530/690 nm) of PBB5 was read by microplate spectrometer (EnSpire 2300, PerkinElmer). Percentage of competition was calculated using the following equation: (Max−well of compound alone)/(Max−Min)*100%, where Max=(Tau+PBB5) signals−(buffer+PBB5) signals; and Min=(buffer+PBB5) signals−(buffer+PBB5) signals.
The IC50 value of each compound was calculated with GraphPad Prism software using the “4 Parameter Logistic Model or Sigmoidal Dose-Response Model”:
Y=Bottom+(Top−Bottom)/(1+(IC50/×)^HillSlope)

[2] = molecular target: T1, heparin-induced aggregated tau (aTau), full-length 2N4R human Tau; assay: In vitro fluorometric aTau binding assay; conditions: 0.04 μM aTau, serially diluted compound 10 to 0.00017 μM, 37° C. 1 hour, fluorescence
Protocol: as §1, §2
(D) In vitro fluorometric aTau binding assays: 2 μM aTau was diluted to 0.04 μM with 30 mM Tris-HCl (pH 6.8), and then incubated with serially diluted compound (three-fold serial dilutions, from 10 to 0.00017 μM) in a 96-well plate (Corning, Cat. No 3573) at 37° C. for 1 hour. Fluorescence intensity (excitation/emission=370/500 nm) of APN-0729 was read by microplate spectrometer (EnSpire 2300, PerkinElmer). Compound Kd values were calculated using the following equation: Y=Bmax* X (Kd+X), where X is the concentration of compound; Y is the fluorescence signal of (compound+aTau)−(compound+DMSO); and Bmax is the maximum signal.

[3] = molecular target: T2, Tau aggregates in P301L-Tau-FL-GFP HEK293 cells (Homo sapiens, UniProt P10636, P618L); assay: Tau degradation assay (APNmAb005 ELISA-based Tau aggregation assay); type: cell-based; conditions: 1 μM of compound, 24 hours, P301L-Tau-FL-GFP HEK293 cells seeded with rTg4510 brain lysate; read-out: Activity (reduction of tau aggregates)
T2 construct: express full-length human tau T40 (2N4R) carrying the P301L mutation with a GFP tag; expressed in transfected cells
Protocol: (A). Cell-based model of Tau inclusion formation: Six month old rTg4510 mouse brain lysates were used as the source of tau seeds, prepared as described in Example 26 above. P301L-Tau-FL-GFP HEK293 cells represent HEK293 cells express full-length human tau T40 (2N4R) carrying the P301L mutation with a GFP tag (P301L-Tau-FL-GFP). 1×10^6 of P301L-Tau-FL-GFP HEK293 cells were cultured on a 6-well plate in culture medium containing DMEM/F-12 (Gibco) supplemented with 10% fetal bovine serum (FBS) (Gibco), 1% Penicillin-Streptomycin (Gibco) and 0.5 mg/ml geneticin (Thermo Fisher Scientific) for 24 hours to reach 70-90% confluency, indicating the cells were ready for transfection. 50 μg of 6-month-old rTg4510 mouse brain lysate was diluted in 400 μL of serum free medium and mixed with 16 μL of lipofectamine 3000 reagent (Thermo Fisher Scientific) diluted in 400 μl of serum free medium. A solution mixture of rTg4510 brain lysate and lipofectamine 3000 was incubated at room temperature for 25 min. The culture media were removed, and then a solution mixture of rTg4510 lysate and lipofectamine 3000 was added to the cells for transfection. The solution mixture was incubated at room temperature for five hours, followed by medium change to 10% fetal bovine serum (FBS). After two-day incubation, Tau aggregates (Tau spots) were induced and images were acquired by ImageXpress Micro Confocal high-content imaging system (Molecular Devices) as described in Example 52 above. Analysis was performed by two customized modules in MetaXpress software (Molecular Devices) for aggregated tau analysis. Output included cell numbers, numbers of tau spots, average intensity of tau spots, and average size of tau spots.
(B). Compound treatment: 100 μL of 3×10^4 cells comprising Tau aggregates, prepared as described above in step (A), were plated on a 96-well plate coated with poly-D-lysine (BD Biosciences) and cultured for 24 hours. Compounds to be tested were dissolved in culture medium containing 0.1% DMSO. Each of test compounds in the concentration of 1, 0.2 and 0.04 μM was added to the cells comprising Tau aggregates and incubated at 37° C. for 24 hours. After that, culture medium was removed, cells were washed with PBS solution and then lysed using 30 μL of lysis buffer (PBS containing 0.3% Triton X-100 and 400 mM NaCl) for one hour at 4° C., and then cell lysate was diluted by 170 μl of PBS containing 400 mM NaCl. Cell lysate was filtrated by a […] filtration plate (Pall) and applied for Tau aggregation assay.
(C). Control cell lysate: control cell lysate was collected from non-seeded cells.
(D). ELISA-based Tau aggregation assay: APNmAb005 ELISA kit for Tau aggregation assay was designed and developed to detect abnormal tau aggregates in buffered solution or cell lysate by using anti-Tau APNmab005 as capture and detection antibody. This antibody is a highly specific antibody bound to human tau aggregates accumulated in mammalian cells. APNmAb005 is recited in PCT Patent Application No. PCT/M2020/057415, filed Aug. 5, 2020, which is incorporated herein by reference.
0.15 μg of APNmAb005 in 100 mM sodium carbonate buffer (pH 9.6) was coated on a high-binding polystyrene 96-well microplate (Greiner Bio-One) at 4° C. overnight. The microplate was washed with PBS followed by treatment with Intercept (PBS) blocking buffer (LI-COR) at room temperature for 2 hours. After that, the microplate was washed with PBS, and then the cell lysate with compound treatment, prepared as described above in step (C), was added into each well of the microplate and incubated at room temperature for 2 hours. The microplate was washed with PBS and then incubated with HRP-conjugated secondary antibody APNmAb005 at room temperature for 3 hours. HRP-conjugated secondary antibody APNmAb005 was prepared using HRP conjugation kit (Abcam,ab102890). The microplate was then washed with PBS and incubated with 100 μL of horseradish peroxidase (HRP) substrate at room temperature. […]

T2 sequence (P10636 1-441 isoform P10636-8 P301L): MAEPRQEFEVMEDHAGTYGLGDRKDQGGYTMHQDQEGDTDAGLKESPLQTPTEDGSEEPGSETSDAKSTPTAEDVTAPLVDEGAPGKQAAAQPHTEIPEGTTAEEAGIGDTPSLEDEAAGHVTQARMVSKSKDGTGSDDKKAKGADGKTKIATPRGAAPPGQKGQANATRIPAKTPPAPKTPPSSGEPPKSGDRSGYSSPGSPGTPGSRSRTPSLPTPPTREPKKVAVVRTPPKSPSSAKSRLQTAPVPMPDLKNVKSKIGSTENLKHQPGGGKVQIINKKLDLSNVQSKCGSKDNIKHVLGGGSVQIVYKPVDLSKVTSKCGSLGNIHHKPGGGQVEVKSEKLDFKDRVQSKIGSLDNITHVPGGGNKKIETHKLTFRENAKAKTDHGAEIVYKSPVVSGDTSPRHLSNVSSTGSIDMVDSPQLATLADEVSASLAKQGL
T1 sequence (P10636 1-441 isoform P10636-8): as the sequence (P10636 1-441 isoform P10636-8 P301L) above, with L301P counted along it

Work on `CN(C)c1ccc(-c2ccc(-c3nc4ccc(NCCOCCOCCOCCOCCOCCOc5ccc6c(c5)C(=O)N(C5CCC(=O)NC5=O)C6=O)cc4s3)cc2)cn1` (centres unmarked) [Compound 159985, 2-[2,6-bis(oxo)piperidin-3-yl]-5-[2-[2-[2-[2-[2-[2-[[2-[4-[6-(dimethylamino)-pyridin-3-yl]phenyl]-1,3-benzothiazol-6-yl]amino]ethoxy]ethoxy]ethoxy]ethoxy]ethoxy]-ethoxy]isoindole-1,3-dione] yielded an IC50 [1] of 320 nM, an Emax [1] of 71% and a Kd [2] of 100 nM. The inhibition at 1 µM [3] was less than 10%.
In the case of `CN(C)c1ccc(-c2ccc(-c3nc4ccc(NCCOCCOc5ccc6c(c5)C(=O)N(C5CCC(=O)NC5=O)C6=O)cc4s3)cc2)cn1` (centres unmarked) [Compound 160219, 2-[2,6-bis(oxo)piperidin-3-yl]-5-[2-[2-[[2-[4-[6-(dimethylamino)pyridin-3-yl]phenyl]-1,3-benzothiazol-6-yl]amino]ethoxy]ethoxy]isoindole-1,3-dione], the IC50 [1] is reported as 150 nM, the Emax [1] is reported as 69% and the Kd [2] is reported as 110 nM. For the same compound, the inhibition at 1 µM [3] was less than 10%.
`CN(C)c1ccc(-c2ccc(-c3nc4ccc(NCCOCCOCCOCCOCCOCCOc5ccc6c(c5)CN(C5CCC(=O)NC5=O)C6=O)cc4s3)cc2)cn1` (centres unmarked) [Compound 160273, 3-[6-[2-[2-[2-[2-[2-[2-[[2-[4-[6-(dimethylamino)pyridin-3-yl]phenyl]-1,3-benzothiazol-6-yl]amino]ethoxy]ethoxy]ethoxy]ethoxy]ethoxy]ethoxy]-3-oxidanylidene-1H-isoindol-2-yl]piperidine-2,6-dione] showed an IC50 [1] of 270 nM, an Emax [1] of 59% and a Kd [2] of 470 nM. The inhibition at 1 µM [3] was less than 10%.
`CN(C)c1ccc2nc(-c3ccc(-c4ccc(NCCOCCOCCOCCOCCOCCOc5ccc6c(c5)CN(C5CCC(=O)NC5=O)C6=O)nc4)cc3)sc2c1` (centres unmarked) [Compound 160383, 3-[6-[2-[2-[2-[2-[2-[2-[[5-[4-[6-(dimethylamino)-1,3-benzothiazol-2-yl]-phenyl]pyridin-2-yl]amino]ethoxy]ethoxy]ethoxy]ethoxy]-ethoxy]ethoxy]-3-oxo-1H-isoindol-2-yl]piperidine-2,6-dione] gave an IC50 [1] of 270 nM, an Emax [1] of 80% and a Kd [2] of 550 nM. For the same compound, the inhibition at 1 µM [3] was less than 10%.
Work on `CN(C)c1ccc(-c2ccc(-c3cn4cc(OCCOCCOCCOCCOCCOCCOc5ccc6c(c5)C(=O)N(C5CCC(=O)NC5=O)C6=O)ccc4n3)cc2)c(F)n1` (centres unmarked) [Compound 160744, 2-[2,6-bis(oxo)piperidin-3-yl]-5-[2-[2-[2-[2-[2-[2-[2-[4-[6-(dimethyl-amino)-2-fluoro-pyridin-3-yl]phenyl]imidazo[1,2-a]pyridin-6-yl]oxyethoxy]ethoxy]ethoxy]-ethoxy]ethoxy]ethoxy]isoindole-1,3-dione] yielded an IC50 [1] of 5960 nM, an Emax [1] of 113% and a Kd [2] of 150 nM. For the same compound, the inhibition at 1 µM [3] was 10 to 20%.
